Where two headings read alike, the source gives them in different places.
How the values were obtained:
[1] = test system: IL-6; details: bone-marrow derived dendritic cells, Egger et al., Angew. Chem. Int. Ed. 2013, cited from earlier work
[2] = test system: IL-12; details: bone-marrow derived dendritic cells, Egger et al., Angew. Chem. Int. Ed. 2013, cited from earlier work
[3] = test system: Pro-inflammatory chemokine genes: CCL1, 2, 3 and 4; assay: qPCR expression of pro-inflammatory chemokine genes in pretreated, R837-stimulated bone marrow-derived dendritic cells; type: cell-based, mouse; details: pretreated 75 minutes, then R837 for 3 h; normalized to G6PDH (Figure 2)
Text: (§1) • Figure 1: Treatment with cyclo-EC (9) licenses dendritic cells to polarize niave CD4 T cells towards the Th2 subset. Naïve transgenic splenic CD4 T cells were co-cultured together with splenic dendritic cells that had been pre-treated either with cyclo-EC (9) (cEC) or the respective solvent control. CD4 T cells were then stimulated with the cognate antigen for 4 days. […] Shown is the percentage of IL-4 producing Th2 and IFNγ producing Th1 cells after treatment with cEC or solvent DMSO. Differences between cEC and DMSO treatments are significant as indicated by (*) using unpaired, two-tailed t tests. […] Wild type bone marrow-derived dendritic cells were pretreated with cyclo-EC (9) (cEC) or solvent control for 75 minutes before stimulation with the TLR7 (toll-like receptor 7) ligand R837 (Syed, T. A., Exp.Opin.Pharmacother. 2001, 2, 877) for an additional 3 h. Cells were then lysed, mRNA was purified, reverse transcribed and expression of Nrf2 ([…]) target genes as well as the indicated chemokine genes was determined by qPCR. Expression levels were normalized to G6PDH (glucose 6-phosphate dehydrogenase) expression. […] Cytokines in the supernatant were quantified with ELISA. • Figure 4. […] Cytokines in the supernatant were quantified with ELISA. • Figure 5. […]

[4] = test system: IL-6; assay: IL-6 secretion by bone marrow-derived dendritic cells stimulated with TLR7 agonist R837 (ELISA); type: cell-based, mouse; details: BMDCs treated 60 minutes, then R837 for 18 h (Figures 3-5)
Text: as §1, with “qPCR.” for “qPCR. Expression levels were normalized to G6PDH (glucose 6-phosphate dehydrogenase) expression.”
(§2) Bone marrow cells from tibia and femur were isolated ex vivo and differentiated in vitro into bone marrow derived dendritic cells (BMDC) by cultivation in the presence of 2 ng/ml carrier free recombinant mouse GM-CSF (BioLegend, 576308) in RPMI 1640 medium (GE Healthcare, E15-039) supplemented with L-glutamine (Lonza-Cambrex BioWhittaker, BE17-605E), HEPES Buffer (Lonza-Cambrex BioWhittaker, BE17-737E), peniciline/ streptomycine (Gibco Life Technologies 15140-122) and fetal bovine serum (Gibco Life Sciences 10270-106). […] Cells were then harvested, counted and seeded into 96-well flat bottom plates at 10^5 cells/well. […] Cytokine concentrations in supernatant were quantified by sandwich ELISA using the following antibody pairs: IL-6 (504502 and 504602) from BioLegend and IL-12 (14-7125-85 and 13-7123-85) from eBioscience. […] Optical density was measured using a Spectra MAX 190 device by Bucher biotec. […]

[5] = test system: naïve CD4 T cells; assay: Co-culture of compound-pretreated splenic dendritic cells with naive CD4 T cells; Th1/Th2 polarization by intracellular FACS staining; type: cell-based, C57BL/6 mice
[6] = test system: Nrf2 target genes; assay: qPCR expression of Nrf2 target genes in pretreated, R837-stimulated bone marrow-derived dendritic cells; type: cell-based, mouse
Text: as §1

[7] = test system: IL-12; assay: IL-12 secretion by bone marrow-derived dendritic cells stimulated with TLR7 agonist R837 (ELISA); type: cell-based, mouse; details: BMDCs treated 60 minutes, then R837 for 18 h (Figures 3-5)
Text: as §1, with “qPCR.” for “qPCR. Expression levels were normalized to G6PDH (glucose 6-phosphate dehydrogenase) expression.”
as §2

| SMILES | secretion of pro-inflammatory cytokine IL-6 [1] | secretion of pro-inflammatory cytokine IL-12 [2] | pro-inflammatory chemokine expression (CCL1, 2, 3 and 4) [3] | inhibition of IL-6 secretion [4] | inhibition of IL-6 secretion ([4]; listed as cEC) | percentage of IFNγ producing Th1 cells ([5]; dendritic cells treated with 500nM for 60 minutes, co-culture 4 days with 10 nM gp61, vs solvent DMSO, p = 0.0161 (Figure 1)) | percentage of IL-4 producing Th2 cells ([5]; dendritic cells treated with 500nM for 60 minutes, co-culture 4 days with 10 nM gp61, vs solvent DMSO, p = 0.039 (Figure 1)) | expression of Nrf2 target genes (HO-1, NQO1) ([6]; pretreated 75 minutes, then R837 for 3 h, normalized to G6PDH (Figure 2)) | inhibition of IL-12 secretion [7] | inhibition of IL-12 secretion ([7]; listed as cEC) | secretion of pro-inflammatory cytokine IL-6 ([1]; listed as 8) | secretion of pro-inflammatory cytokine IL-12 ([2]; listed as 8) | polarization of naïve CD4 T cells towards the Th2 subset ([5]; earlier experiments, splenic dendritic cells) | expression of downstream targets of Nrf2 ([6]; earlier experiments, quantitative PCR) |
| --- | --- | --- | --- | --- | --- | --- | --- | --- | --- | --- | --- | --- | --- | --- |
| CCCCC/C=C\C[C@@H]1/C(=C\[C@H]2O[C@@H]2CCCC(=O)O)C(=O)C[C@H]1O [EI (19), 5,6-epoxyisoprostane E2] | reduced secretion | reduced secretion | – | – | – | – | – | – | – | – | – | – | – | – |
| CCCCC/C=C\C[C@H]1C=CC(=O)/C1=C/[C@@H](O)[C@@H]1CCCC(=O)O1 [cyclo-EC (9), (S)-6-((R,E)-1-Hydroxy-2-((S)-2-((Z)-oct-2-en-1-yl)-5-oxocyclopent-3-en-1-liydene)-ethyl)tetrahydro-2H-pyran-2-one] | – | – | inhibits pro-inflammatory chemokine expression | most potent inhibitor of IL-6 and IL-12 secretion | attenuates secretion of pro-inflammatory cytokines at lower concentrations than EC | interferes with high dose antigen induced polarization towards the Th1 subset | licenses the dendritic cells to promote polarization of the Th2 subset | induces expression of Nrf2 target genes | most potent inhibitor of IL-6 and IL-12 secretion | attenuates secretion of pro-inflammatory cytokines at lower concentrations than EC | – | – | – | – |
| CCCCC/C=C\C[C@H]1C=CC(=O)/C1=C/[C@H]1O[C@@H]1CCCC(=O)O [EC (8), 4-((2R,3R)-3-((E)-((S)-2-((Z)-Oct-2-en-1-yl)-5-oxocyclopent-3-en-1-ylidene)-methyl)oxiran-2-yl)butanoic acid] | more potent than EI (19) | more potent than EI (19) | – | potent inhibitor of toll-like receptor 7 (TLR) mediated secretion of pro-inflammatory cytokines | – | – | – | – | potent inhibitor of toll-like receptor 7 (TLR) mediated secretion of pro-inflammatory cytokines | – | reduced secretion | reduced secretion | able to license splenic dendritic cells to polarize naïve CD4 T cells towards the Th2 subset | able to drive expression of downstream targets of Nrf2 |

— patent publication EP2963029A1, “Cyclic derivatives of epoxyisoprostanoids as therapeutic agents” (ETH Zurich, priority 2014, dated 2016)
